Measured values: patent publication US11034672B1, “Tyrosine kinase inhibitor compositions, methods of making and methods of use” (Black Diamond Therapeutics, Inc., priority 2018, dated 2021)

What was measured:
Assay type in all cases: cell-based
EGFR WT [1] = target: T1, EGFR WT (Homo sapiens, UniProt P00533); assay: Activity for inhibiting EGFR (Table A), EGFR WT; details: read-out: EGFR WT, potency code (IC50)
EGFR V3 [2] = target: T2, EGFR V3 (Homo sapiens, UniProt P00533, DELINS30-297G); assay: Activity for inhibiting EGFR (Table A), EGFR V3 (EGFR-Viii); details: read-out: EGFR V3, potency code (IC50)
T2 construct: expressed in transfected cells; host or cells: BaF3 (murine pro-B), retroviral pMXs-IRES-Blasticidin

HER2 S310F [3] = target: T3, HER2 S310F (Homo sapiens, UniProt P04626, S310F); assay: Activity for inhibiting HER2 (Table B), HER2 S310F; details: read-out: HER2 S310F, potency code (IC50)
T3 construct: expressed in transfected cells; host or cells: BaF3 (murine pro-B)
Procedure: (§1) EC50 values were determined with the same application.

HER2 YVMA [4] = target: T4, HER2 YVMA (Homo sapiens, UniProt P04626, INS775YVMA); assay: Activity for inhibiting HER2 (Table B), HER2 YVMA; details: read-out: HER2 YVMA, potency code (IC50)
T4 construct: expressed in transfected cells; host or cells: BaF3 (murine pro-B)
Procedure: as §1

EGFR WT [5] = target: T1, EGFR WT; assay: BaF3 cell proliferation assay, EGFR WT (Table A); details: potency code, 3 days, CellTiterGlo, read-out: EGFR WT (Activity for Inhibiting EGFR)
Method in brief: (§2)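 BaF3 cells were infected twice with retrovirus carrying the mutant (pMXs-IRES-Blasticidin, 8 μg/ml polybrene, spinoculation), then selected in 10 μg/ml blasticidin for one week. Resistant pools were then grown without IL-3 to select for IL-3-independent growth. EC50 values were derived from proliferation.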

EGFR V3 [6] = target: T2, EGFR V3; assay: BaF3 cell proliferation assay, EGFR V3 (Table A); details: potency code, 3 days, CellTiterGlo, read-out: EGFR V3 (Activity for Inhibiting EGFR)
Method in brief: as §2

HER2 S310F [7] = target: T3, HER2 S310F; assay: BaF3 cell proliferation assay, HER2 S310F (Table B); details: potency code, 3 days, CellTiterGlo, read-out: HER2 S310F (Activity for Inhibiting HER2)
HER2 YVMA [8] = target: T4, HER2 YVMA; assay: BaF3 cell proliferation assay, HER2 YVMA (Table B); details: potency code, 3 days, CellTiterGlo, read-out: HER2 YVMA (Activity for Inhibiting HER2)

T1 sequence (P00533 25-1210 N540K): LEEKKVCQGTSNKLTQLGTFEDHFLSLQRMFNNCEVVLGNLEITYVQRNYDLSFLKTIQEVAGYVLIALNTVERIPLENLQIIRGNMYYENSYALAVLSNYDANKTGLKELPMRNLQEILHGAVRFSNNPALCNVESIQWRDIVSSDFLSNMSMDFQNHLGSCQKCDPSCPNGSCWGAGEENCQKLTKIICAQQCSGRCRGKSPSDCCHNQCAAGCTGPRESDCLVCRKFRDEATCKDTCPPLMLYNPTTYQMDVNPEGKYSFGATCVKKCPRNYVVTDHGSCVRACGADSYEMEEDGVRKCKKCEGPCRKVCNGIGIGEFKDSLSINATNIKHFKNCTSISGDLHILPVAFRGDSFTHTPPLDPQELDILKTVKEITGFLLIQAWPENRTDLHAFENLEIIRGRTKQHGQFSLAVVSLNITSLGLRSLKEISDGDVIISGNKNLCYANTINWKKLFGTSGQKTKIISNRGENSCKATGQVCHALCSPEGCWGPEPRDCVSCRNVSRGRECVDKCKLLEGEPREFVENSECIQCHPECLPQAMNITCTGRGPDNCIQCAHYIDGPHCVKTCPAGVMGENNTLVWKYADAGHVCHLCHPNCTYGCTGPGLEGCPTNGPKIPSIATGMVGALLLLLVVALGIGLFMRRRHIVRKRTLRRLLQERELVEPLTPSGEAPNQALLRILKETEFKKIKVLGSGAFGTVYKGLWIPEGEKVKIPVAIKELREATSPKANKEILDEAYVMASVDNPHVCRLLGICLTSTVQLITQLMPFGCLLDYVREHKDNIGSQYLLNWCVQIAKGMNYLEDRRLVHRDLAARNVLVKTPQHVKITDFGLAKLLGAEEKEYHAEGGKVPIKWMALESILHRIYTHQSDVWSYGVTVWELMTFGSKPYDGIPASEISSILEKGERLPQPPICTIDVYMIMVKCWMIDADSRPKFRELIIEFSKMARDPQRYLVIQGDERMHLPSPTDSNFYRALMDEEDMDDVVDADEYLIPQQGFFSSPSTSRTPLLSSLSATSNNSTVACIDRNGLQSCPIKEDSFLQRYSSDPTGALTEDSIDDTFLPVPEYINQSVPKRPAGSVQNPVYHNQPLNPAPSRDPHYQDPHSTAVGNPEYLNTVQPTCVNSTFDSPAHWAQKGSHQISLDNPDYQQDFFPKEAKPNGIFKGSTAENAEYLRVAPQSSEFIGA
T4 sequence (P04626 with tags, fused parts or gaps INS775YVMA): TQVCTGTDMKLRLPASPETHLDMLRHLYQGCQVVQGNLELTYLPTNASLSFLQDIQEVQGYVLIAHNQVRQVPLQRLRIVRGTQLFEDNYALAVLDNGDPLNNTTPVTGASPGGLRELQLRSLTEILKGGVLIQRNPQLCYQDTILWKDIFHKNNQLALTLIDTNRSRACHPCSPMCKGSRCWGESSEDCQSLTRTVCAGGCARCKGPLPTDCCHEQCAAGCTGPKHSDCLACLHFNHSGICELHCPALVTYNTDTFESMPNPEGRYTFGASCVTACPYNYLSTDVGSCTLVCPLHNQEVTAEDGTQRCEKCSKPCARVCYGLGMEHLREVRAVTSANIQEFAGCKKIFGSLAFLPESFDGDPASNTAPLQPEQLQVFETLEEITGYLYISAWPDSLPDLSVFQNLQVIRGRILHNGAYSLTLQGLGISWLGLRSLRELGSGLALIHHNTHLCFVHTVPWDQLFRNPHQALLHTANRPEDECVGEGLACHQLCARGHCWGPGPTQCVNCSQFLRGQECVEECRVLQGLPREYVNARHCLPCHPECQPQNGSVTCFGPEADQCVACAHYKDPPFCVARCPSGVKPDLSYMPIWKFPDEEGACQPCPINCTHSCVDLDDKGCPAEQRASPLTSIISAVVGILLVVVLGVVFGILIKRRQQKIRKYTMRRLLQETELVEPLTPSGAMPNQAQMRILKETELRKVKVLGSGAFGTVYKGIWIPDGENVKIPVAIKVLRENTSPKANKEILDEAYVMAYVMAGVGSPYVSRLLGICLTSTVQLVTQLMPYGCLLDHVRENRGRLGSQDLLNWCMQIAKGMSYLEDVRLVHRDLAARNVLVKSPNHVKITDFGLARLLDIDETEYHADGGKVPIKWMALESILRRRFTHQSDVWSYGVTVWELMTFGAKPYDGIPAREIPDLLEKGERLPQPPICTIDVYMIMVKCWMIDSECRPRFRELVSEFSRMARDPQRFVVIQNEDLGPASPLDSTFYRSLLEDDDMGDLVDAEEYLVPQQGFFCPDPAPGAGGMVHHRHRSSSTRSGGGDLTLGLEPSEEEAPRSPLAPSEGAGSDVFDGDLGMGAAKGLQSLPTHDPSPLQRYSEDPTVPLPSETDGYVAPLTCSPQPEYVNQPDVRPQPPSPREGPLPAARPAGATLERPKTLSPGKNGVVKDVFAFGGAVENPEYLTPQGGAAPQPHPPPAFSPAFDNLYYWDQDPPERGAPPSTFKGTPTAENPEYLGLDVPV
T3 sequence (P04626 23-1255 S310F): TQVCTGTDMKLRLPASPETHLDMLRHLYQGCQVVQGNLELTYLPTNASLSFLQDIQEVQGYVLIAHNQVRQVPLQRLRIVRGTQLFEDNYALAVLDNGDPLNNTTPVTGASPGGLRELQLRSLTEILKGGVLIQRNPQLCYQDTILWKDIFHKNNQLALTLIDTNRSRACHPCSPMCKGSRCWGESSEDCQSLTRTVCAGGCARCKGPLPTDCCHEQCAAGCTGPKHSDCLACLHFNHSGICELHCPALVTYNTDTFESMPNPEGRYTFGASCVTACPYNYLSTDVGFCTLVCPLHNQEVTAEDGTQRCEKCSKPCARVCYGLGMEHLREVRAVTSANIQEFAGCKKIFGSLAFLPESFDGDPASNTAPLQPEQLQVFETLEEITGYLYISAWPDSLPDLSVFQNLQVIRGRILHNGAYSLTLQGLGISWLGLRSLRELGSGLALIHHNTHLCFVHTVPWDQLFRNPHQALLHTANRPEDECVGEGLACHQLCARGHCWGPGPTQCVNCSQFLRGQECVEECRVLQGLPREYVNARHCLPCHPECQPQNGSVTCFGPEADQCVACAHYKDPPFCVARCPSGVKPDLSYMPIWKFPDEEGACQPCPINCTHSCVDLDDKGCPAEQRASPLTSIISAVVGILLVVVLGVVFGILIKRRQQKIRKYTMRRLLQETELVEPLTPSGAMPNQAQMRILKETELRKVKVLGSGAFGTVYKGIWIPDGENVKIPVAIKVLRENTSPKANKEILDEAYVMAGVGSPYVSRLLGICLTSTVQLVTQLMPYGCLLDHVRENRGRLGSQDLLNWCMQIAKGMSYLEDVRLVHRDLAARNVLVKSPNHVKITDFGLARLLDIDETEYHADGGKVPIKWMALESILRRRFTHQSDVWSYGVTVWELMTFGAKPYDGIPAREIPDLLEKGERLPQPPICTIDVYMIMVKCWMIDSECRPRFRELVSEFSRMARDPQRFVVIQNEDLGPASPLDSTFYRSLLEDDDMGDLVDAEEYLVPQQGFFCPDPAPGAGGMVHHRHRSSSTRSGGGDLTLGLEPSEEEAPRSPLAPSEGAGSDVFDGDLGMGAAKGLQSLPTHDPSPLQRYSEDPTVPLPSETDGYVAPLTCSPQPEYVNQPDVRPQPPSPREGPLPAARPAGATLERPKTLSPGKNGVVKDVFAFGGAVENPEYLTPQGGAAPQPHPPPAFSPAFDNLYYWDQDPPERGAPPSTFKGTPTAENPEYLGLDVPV
T2 sequence (P00533 with tags, fused parts or gaps DELINS30-297G): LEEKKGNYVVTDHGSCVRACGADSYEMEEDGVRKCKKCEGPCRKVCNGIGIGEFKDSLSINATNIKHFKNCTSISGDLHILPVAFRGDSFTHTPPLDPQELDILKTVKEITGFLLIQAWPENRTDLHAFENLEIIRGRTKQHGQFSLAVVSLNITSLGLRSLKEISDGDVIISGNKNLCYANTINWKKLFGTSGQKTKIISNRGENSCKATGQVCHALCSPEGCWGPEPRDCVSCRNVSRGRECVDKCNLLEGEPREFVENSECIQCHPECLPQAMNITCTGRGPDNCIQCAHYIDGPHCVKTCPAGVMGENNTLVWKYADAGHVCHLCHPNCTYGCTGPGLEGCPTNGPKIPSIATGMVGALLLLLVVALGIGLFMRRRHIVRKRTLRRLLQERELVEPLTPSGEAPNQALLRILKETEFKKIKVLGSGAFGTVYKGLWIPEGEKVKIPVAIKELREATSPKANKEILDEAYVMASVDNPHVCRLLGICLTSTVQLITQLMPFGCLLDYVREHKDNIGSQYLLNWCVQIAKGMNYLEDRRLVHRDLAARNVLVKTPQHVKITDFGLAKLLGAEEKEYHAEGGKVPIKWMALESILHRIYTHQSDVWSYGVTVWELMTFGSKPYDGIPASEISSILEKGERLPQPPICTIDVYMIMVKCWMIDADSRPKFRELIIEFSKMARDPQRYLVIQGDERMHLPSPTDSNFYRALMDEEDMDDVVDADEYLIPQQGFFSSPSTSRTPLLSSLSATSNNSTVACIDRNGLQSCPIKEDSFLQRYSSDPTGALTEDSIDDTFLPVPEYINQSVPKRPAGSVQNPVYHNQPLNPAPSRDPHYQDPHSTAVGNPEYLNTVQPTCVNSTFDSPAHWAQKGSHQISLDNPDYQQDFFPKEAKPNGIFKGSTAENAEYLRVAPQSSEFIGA

Compound	IC50 (EGFR WT [1]) [nM]	IC50 (EGFR V3 [2]) [nM]	IC50 (HER2 S310F [3]) [nM]	IC50 (HER2 YVMA [4]) [nM]	IC50 (EGFR WT [5]) [nM]	IC50 (EGFR V3 [6]) [nM]	IC50 (HER2 S310F [7]) [nM]	IC50 (HER2 YVMA [8]) [nM]
C=CC(=O)Nc1cc2c(Nc3ccc(Oc4cccnc4)cc3)ncnc2cc1OCCN1CCOCC1 [compound 75]	> 1000	100 to 200	100 to 200	300 to 500	> 1000	100 to 200	100 to 200	300 to 500
C=CC(=O)Nc1cc2c(Nc3ccc(OCc4ccccn4)c(Cl)c3)ncnc2cc1OCC(C)(C)N(C)C [compound 94, N-(4-((3-chloro-4-(pyridin-2-ylmethoxy)phenyl)amino)-7-(2-(dimethylamino)-2-methylpropoxy)quinazolin-6-yl)acrylamide]	300 to 500	30 to 50	30 to 50	300 to 500	300 to 500	30 to 50	30 to 50	300 to 500
C=CC(=O)Nc1cc2c(Nc3ccc(OCc4ccccn4)c(Cl)c3)ncnc2cc1OC[C@H]1COCCN1 [compound 90, N-(4-((3-chloro-4-(pyridin-2-ylmethoxy)phenyl)amino)-7-(morpholin-3-ylmethoxy)quinazolin-6-yl)acrylamide]	500 to 1000	30 to 50	20 to 30	100 to 200	500 to 1000	30 to 50	20 to 30	100 to 200
CC#CC(=O)Nc1cc2c(Nc3cc(Cl)c(OCc4cccc(F)c4)cc3F)ncnc2cc1OCCN1CC(OC)C1 [compound 152, N-(4-((5-chloro-2-fluoro-4-((3-fluorobenzyl)oxy)phenyl)amino)-7-(2-(3-methoxyazetidin-1-yl)ethoxy)quinazolin-6-yl)but-2-ynamide]	100 to 200	30 to 50	5 to 10	50 to 100	100 to 200	30 to 50	5 to 10	50 to 100
C=CC(=O)Nc1cc2c(Nc3cc(Cl)c(OCc4cccc(F)c4)cc3F)ncnc2cc1OCCN1CC(OC)C1 [compound 134]	200 to 300	50 to 100	30 to 50	300 to 500	200 to 300	50 to 100	30 to 50	300 to 500
CC#CC(=O)Nc1cc2c(Nc3ccc(OCc4ccccn4)c(Cl)c3)ncnc2cc1C#CC1[C@H]2CN(C)C[C@@H]12 (stereo partly drawn) [compound 107, N-(4-((3-chloro-4-(pyridin-2-ylmethoxy)phenyl)amino)-7-(((1R,5S,6s)-3-methyl-3-azabicyclo[3.1.0]hexan-6-yl)ethynyl)quinazolin-6-yl)but-2-ynamide]	200 to 300	50 to 100	10 to 20	30 to 50	200 to 300	50 to 100	10 to 20	30 to 50
C=CC(=O)Nc1cc2c(Nc3ccc(OCc4ccccn4)c(Cl)c3)ncnc2cc1C#CC1CCCN1 (stereo not shown) [compound 83, N-(4-((3-chloro-4-(pyridin-2-ylmethoxy)phenyl)amino)-7-(pyrrolidin-2-ylethynyl)quinazolin-6-yl)acrylamide]	500 to 1000	50 to 100	10 to 20	100 to 200	500 to 1000	50 to 100	10 to 20	100 to 200
C=CC(=O)Nc1cc2c(Nc3ccc(OCc4cccc(F)n4)c(Cl)c3)ncnc2cc1OCCCN1C[C@H]2C[C@@H]1CO2 [compound 162]	300 to 500	30 to 50	30 to 50	100 to 200	300 to 500	30 to 50	30 to 50	100 to 200
CC#CC(=O)Nc1cc2c(Nc3cc(Cl)c(OCc4cccc(F)c4)cc3F)ncnc2cc1O[C@@H]1CCN(C)C1 [compound 151, (R)-N-(4-((5-chloro-2-fluoro-4-((3-fluorobenzyl)oxy)phenyl)amino)-7-((1-methylpyrrolidin-3-yl)oxy)quinazolin-6-yl)but-2-ynamide]	100 to 200	50 to 100	10 to 20	100 to 200	100 to 200	50 to 100	10 to 20	100 to 200
C=CC(=O)Nc1cc2c(Nc3ccc(OCc4cccc(F)n4)c(Cl)c3)ncnc2cc1OCCN1CC(OC)C1 [compound 157]	500 to 1000	30 to 50	30 to 50	300 to 500	500 to 1000	30 to 50	30 to 50	300 to 500
C=CC(=O)Nc1cc2c(Nc3ccc(OCc4ccccn4)c(Cl)c3)ncnc2cc1OCCN1CC2CN(C)CC2C1 (stereo not shown) [compound 77]	100 to 200	50 to 100	20 to 30	100 to 200	100 to 200	50 to 100	20 to 30	100 to 200
